What was measured:
human IGF1R (hIGF1R) = target: T1, human IGF1R (hIGF1R) (Homo sapiens, UniProt P08069); test: TR-FRET kinase assay of purified hIGF1R; assay type: biochemical; conditions: activated hIGF1R 0.5 nM, 10 μM ATP, values given as pIC50 category, read-out: IGF-1R pIC50 (converted)
T1 construct: containing amino acid residues 957-1367 of human IGF1R; made in house; host or cells: Sf9 cells (baculovirus)

human IR (hIR) = target: T2, human IR (hIR) (Homo sapiens, UniProt P06213); test: TR-FRET kinase assay of purified hIR; assay type: biochemical; conditions: activated hIR 0.5 nM, 10 μM ATP, values given as pIC50 category
T2 construct: containing amino acid residues 979-1382 of human IR; made in house; host or cells: Sf9 cells (baculovirus), same process as hIGF1R

[1] = target: T3, NIH-3T3 cells overexpressing human IGF-1R (Homo sapiens, UniProt P08069); test: IGF-1R cellular autophosphorylation (DELFIA); assay type: cell-based
T3 construct: expressed in transfected cells; host or cells: NIH-3T3 (mouse fibroblasts)
Description: NIH-3T3 cells overexpressing human IGF-1R or IR were plated in 96-well plates (10,000 cells/well) in culture media containing 10% fetal bovine serum and incubated at 37° C. in a 5% CO2 incubator. Twenty four hours post-plating, cells were treated with different concentrations of test compounds ranging from 30 uM to 1.5 nM. Two hours after compound addition, cells were stimulated with either human IGF-1 (30 ng/ml) or insulin (3 ug/ml) for 15 minutes. Cell lysates are analyzed for phosphorylated receptors using dissociation enhanced lanthanide fluor-immuno assay (DELFIA) with anti-IGF-1R (MAB391, R&D Systems, Minneapolis, Minn.) or anti-IRβ (sc-711, Santa Cruz Biotechnology, Santa Cruz, Calif.) capture antibody and europium-labeled anti-pTyr antibody (Eu-N1 PT66, Perkin Elmer, Waltham, Mass.) for detection. The fluorescence signal for cells treated with compounds was expressed as percent relative to 100% stimulation (IGF-1 or insulin stimulated signal).

ALK = ALK (Homo sapiens, UniProt Q9UM73); test: ALK enzyme assay (HTRF); assay type: biochemical; conditions: 0.25 nM ALK, 15.0 μM ATP, values given as pIC50 category
In short: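 Final compound range 0.00017 to 10 μM (twelve 1:3 dilutions). Kinase reaction with ATP and biotinylated synthetic peptide runs 120 min at 20° C, stopped with EDTA; phosphotyrosine detected by HTRF after 60 min. Inhibition referenced to DMSO (1%) and EDTA (0.1 M) controls, curve-fitted.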

T1 sequence (P08069 957-1367): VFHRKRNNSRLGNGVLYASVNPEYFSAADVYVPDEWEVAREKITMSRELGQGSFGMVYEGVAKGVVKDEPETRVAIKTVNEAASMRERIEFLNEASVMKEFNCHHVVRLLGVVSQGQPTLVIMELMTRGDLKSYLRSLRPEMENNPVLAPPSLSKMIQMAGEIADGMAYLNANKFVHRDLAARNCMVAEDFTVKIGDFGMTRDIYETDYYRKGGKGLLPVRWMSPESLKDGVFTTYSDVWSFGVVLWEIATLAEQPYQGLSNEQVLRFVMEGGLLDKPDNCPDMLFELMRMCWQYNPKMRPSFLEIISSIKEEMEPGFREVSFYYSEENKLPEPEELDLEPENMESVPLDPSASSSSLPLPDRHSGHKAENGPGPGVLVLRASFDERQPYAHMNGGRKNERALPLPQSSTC
Chain of ALK (Q9UM73 19-1620): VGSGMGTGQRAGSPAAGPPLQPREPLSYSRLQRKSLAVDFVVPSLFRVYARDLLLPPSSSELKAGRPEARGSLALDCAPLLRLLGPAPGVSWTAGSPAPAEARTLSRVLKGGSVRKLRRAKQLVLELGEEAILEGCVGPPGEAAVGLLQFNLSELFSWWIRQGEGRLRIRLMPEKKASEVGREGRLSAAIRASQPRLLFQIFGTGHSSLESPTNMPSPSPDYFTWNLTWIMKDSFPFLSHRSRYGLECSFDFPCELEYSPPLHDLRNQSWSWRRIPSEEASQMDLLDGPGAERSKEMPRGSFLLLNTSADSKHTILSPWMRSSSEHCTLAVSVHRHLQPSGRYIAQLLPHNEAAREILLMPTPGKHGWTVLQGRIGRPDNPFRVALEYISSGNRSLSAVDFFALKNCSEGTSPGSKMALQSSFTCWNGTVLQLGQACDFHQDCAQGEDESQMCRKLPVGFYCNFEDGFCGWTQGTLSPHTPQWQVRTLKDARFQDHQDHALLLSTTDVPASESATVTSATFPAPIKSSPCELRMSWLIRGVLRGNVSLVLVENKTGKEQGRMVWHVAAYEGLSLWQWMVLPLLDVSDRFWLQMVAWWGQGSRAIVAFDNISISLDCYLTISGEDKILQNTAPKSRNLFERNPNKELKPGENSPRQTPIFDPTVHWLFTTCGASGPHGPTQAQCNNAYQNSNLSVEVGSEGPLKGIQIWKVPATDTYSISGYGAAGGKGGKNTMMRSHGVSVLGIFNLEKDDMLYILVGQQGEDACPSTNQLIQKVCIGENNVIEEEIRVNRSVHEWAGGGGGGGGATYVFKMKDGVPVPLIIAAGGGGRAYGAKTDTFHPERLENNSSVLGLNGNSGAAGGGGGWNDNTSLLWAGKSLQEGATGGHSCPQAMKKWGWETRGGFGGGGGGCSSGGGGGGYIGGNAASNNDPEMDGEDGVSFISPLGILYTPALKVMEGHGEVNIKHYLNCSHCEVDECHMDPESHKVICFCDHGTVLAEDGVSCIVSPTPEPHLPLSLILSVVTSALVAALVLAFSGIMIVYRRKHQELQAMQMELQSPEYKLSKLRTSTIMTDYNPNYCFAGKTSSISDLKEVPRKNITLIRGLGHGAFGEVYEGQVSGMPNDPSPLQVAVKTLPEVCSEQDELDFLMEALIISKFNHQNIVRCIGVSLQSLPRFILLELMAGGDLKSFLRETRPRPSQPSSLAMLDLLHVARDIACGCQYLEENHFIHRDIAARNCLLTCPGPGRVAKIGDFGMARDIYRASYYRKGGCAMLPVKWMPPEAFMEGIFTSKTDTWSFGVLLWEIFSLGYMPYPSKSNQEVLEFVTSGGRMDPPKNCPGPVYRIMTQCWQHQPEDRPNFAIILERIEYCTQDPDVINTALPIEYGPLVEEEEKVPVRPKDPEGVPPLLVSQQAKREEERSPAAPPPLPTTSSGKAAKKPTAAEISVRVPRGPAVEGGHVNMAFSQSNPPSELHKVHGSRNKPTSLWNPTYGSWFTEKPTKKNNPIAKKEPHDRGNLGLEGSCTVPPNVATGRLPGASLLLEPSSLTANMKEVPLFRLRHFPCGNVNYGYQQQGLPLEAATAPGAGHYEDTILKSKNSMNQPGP
T2 sequence (P06213 979-1382): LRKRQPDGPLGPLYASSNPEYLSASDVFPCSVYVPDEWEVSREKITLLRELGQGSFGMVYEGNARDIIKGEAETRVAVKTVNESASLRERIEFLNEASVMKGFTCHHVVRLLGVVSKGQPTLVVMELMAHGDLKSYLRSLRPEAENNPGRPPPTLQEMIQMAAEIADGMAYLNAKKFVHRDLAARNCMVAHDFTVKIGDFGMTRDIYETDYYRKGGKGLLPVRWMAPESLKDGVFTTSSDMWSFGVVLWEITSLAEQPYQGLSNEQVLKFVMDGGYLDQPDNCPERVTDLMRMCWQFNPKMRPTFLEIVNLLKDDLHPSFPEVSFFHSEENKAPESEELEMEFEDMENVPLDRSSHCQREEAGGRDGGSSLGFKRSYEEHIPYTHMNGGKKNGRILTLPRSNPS
T3 sequence (P08069 31-1367): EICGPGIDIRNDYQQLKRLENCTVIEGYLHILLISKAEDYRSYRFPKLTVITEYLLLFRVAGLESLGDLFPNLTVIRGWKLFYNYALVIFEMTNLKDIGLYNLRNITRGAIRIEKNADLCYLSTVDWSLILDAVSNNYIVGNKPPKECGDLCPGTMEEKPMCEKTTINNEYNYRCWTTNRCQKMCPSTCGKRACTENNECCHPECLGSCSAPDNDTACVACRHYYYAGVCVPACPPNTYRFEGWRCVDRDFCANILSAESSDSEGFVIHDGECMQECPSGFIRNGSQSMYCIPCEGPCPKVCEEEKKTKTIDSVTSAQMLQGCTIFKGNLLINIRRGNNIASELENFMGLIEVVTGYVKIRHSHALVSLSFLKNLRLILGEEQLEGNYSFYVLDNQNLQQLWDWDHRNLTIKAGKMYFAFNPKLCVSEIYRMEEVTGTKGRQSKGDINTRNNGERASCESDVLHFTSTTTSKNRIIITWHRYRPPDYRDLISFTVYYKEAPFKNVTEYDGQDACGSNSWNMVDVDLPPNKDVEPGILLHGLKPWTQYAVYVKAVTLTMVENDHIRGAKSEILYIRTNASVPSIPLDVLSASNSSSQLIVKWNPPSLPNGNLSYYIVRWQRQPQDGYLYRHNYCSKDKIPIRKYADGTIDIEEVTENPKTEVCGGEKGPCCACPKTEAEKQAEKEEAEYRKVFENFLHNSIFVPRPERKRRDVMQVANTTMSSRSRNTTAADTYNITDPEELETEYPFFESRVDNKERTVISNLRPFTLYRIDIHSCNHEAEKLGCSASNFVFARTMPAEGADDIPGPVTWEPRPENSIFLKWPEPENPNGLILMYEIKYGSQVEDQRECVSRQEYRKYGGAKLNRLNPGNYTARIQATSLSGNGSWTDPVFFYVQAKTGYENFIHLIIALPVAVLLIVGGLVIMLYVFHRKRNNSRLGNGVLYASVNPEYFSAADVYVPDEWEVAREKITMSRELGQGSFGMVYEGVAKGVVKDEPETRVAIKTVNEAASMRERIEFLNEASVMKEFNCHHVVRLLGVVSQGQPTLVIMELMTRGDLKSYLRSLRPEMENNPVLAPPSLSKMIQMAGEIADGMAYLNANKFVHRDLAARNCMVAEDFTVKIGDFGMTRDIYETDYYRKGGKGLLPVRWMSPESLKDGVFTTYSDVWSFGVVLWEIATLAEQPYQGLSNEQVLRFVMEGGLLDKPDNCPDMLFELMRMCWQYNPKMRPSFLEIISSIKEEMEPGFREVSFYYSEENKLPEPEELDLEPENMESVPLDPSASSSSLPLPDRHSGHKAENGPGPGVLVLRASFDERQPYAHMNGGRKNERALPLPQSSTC

Row | Structure (SMILES) | IC50 (human IGF1R (hIGF1R)) [nM] | IC50 (human IR (hIR)) [nM] | IC50 [1] [nM] | IC50 (ALK) [nM]
1 | CNC(=O)c1ccccc1Nc1nc(Nc2ccc(N3CCN(C(C)C)CC3)cc2OC)nc2[nH]ccc12 [Example 25, N-methyl-2-[(2-{[4-[4-(1-methylethyl)-1-piperazinyl]-2-(methyloxy)phenyl]amino}-1H-pyrrolo[2,3-d]pyrimidin-4-yl)amino]benzamide] | 1.26 to 3.98 | 1.26 to 3.98 | 100 to 500 | 0.251 to 1
2 | Cc1cc(N2CCOCC2)ccc1Nc1nc(Nc2ccccc2C(N)=O)c2cc[nH]c2n1 [Example 11, 2-[(2-{[2-methyl-4-(4-morpholinyl)phenyl]amino}-1H-pyrrolo[2,3-d]pyrimidin-4-yl)amino]benzamide] | 1.26 to 3.98 | 1.26 to 3.98 | 100 to 500 | 1.26 to 3.98
3 | Cc1ccc(NC(=O)CN(C)C)cc1Nc1nc(Nc2ccccc2C(=O)NCCO)c2cc[nH]c2n1 [Example 26, 2-{[2-({5-[(N,N-dimethylglycyl)amino]-2-methylphenyl}amino)-1H-pyrrolo[2,3-d]pyrimidin-4-yl]amino}-N-(2-hydroxyethyl)benzamide] | 5.01 to 200 | 1.26 to 3.98 | > 500 | 5.01 to 200
4 | COc1cc(N2CCN(C(C)C)CC2)ccc1Nc1nc(Nc2cccc(C)c2C(N)=O)c2cc[nH]c2n1 [Example 31, 2-methyl-6-[(2-{[4-[4-(1-methylethyl)-1-piperazinyl]-2-(methyloxy)phenyl]amino}-1H-pyrrolo[2,3-d]pyrimidin-4-yl)amino]benzamide] | 5.01 to 200 | 5.01 to 158 | > 500 | 5.01 to 200

Molecules with a lower IC50 (human IR (hIR)), results first:

Row | IC50 (human IGF1R (hIGF1R)) [nM] | IC50 (human IR (hIR)) [nM] | IC50 [1] [nM] | IC50 (ALK) [nM] | Structure (SMILES)
5 | 0.251 to 1 | 0.251 to 1 | 100 to 500 | 1.26 to 3.98 | CN(C)CC(=O)Nc1ccc(OC(F)(F)F)c(Nc2nc(Nc3ccc(F)cc3C(N)=O)c3cc[nH]c3n2)c1 [Example 63, 2-{[2-({5-[(N,N-dimethylglycyl)amino]-2-[(trifluoromethyl)oxy]phenyl}amino)-1H-pyrrolo[2,3-d]pyrimidin-4-yl]amino}-5-fluorobenzamide]
6 | 1.26 to 3.98 | 0.251 to 1 | > 500 | 5.01 to 200 | Cc1ccc(NC(=O)CN(C)C)cc1Nc1nc(Nc2cc(F)c(F)cc2C(N)=O)c2cc[nH]c2n1 [Example 106, 2-{[2-({5-[(N,N-dimethylglycyl)amino]-2-methylphenyl}amino)-1H-pyrrolo[2,3-d]pyrimidin-4-yl]amino}-4,5-difluorobenzamide]
7 | 0.251 to 1 | 0.251 to 1 | < 100 | 0.251 to 1 | COc1cc(C2=CCCN(C)C2)ccc1Nc1nc(Nc2ccccc2C(N)=O)c2cc[nH]c2n1 [Example 4, 2-[(2-{[2-(methyloxy)-4-(1-methyl-1,2,5,6-tetrahydro-3-pyridinyl)phenyl]amino}-1H-pyrrolo[2,3-d]pyrimidin-4-yl)amino]benzamide]
8 | 1.26 to 3.98 | 0.251 to 1 | > 500 | 5.01 to 200 | Cc1ccc(NC(=O)CN(C)C)cc1Nc1nc(Nc2cc(F)ccc2C(N)=O)c2cc[nH]c2n1 [Example 85, 2-{[2-({5-[(N,N-dimethylglycyl)amino]-2-methylphenyl}amino)-1H-pyrrolo[2,3-d]pyrimidin-4-yl]amino}-4-fluorobenzamide]
9 | 0.251 to 1 | 0.251 to 1 | > 500 | 0.251 to 1 | Cc1ccc(NC(=O)CN(C)C)cc1Nc1nc(Nc2ccccc2C(=O)NO)c2cc[nH]c2n1 [Example 28, 2-{[2-({5-[(N,N-dimethylglycyl)amino]-2-methylphenyl}amino)-1H-pyrrolo[2,3-d]pyrimidin-4-yl]amino}-N-hydroxybenzamide]
10 | 0.251 to 1 | 0.251 to 1 | < 100 | 0.251 to 1 | COc1cc(C2=CCCN(C(C)C)C2)ccc1Nc1nc(Nc2ccccc2C(N)=O)c2cc[nH]c2n1 [Example 6, 2-[(2-{[4-[1-(1-methylethyl)-1,2,5,6-tetrahydro-3-pyridinyl]-2-(methyloxy)phenyl]amino}-1H-pyrrolo[2,3-d]pyrimidin-4-yl)amino]benzamide]
